# Reference: US10689377B2 (Mirati Therapeutics, Inc., priority 2017, dated 2020)
# Target: KRas G12C (Homo sapiens, UniProt P01116, G12C)
# Assay: Cellular inhibition of KRas G12C measured by Phospho-ERK in NCI-H358 cells
# Format: cell-based
# Details: pERK(Thr202/Tyr204) normalized with GAPDH, NCI-H358 cells, 3 hours; read-out: IC50
# How it was run: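 Following 8-12 h attachment, NCI-H358 cells got serially diluted compound (0.5% DMSO) for 3 hours. Cells were then fixed, permeabilized with cold methanol, and stained for pERK(Thr202/Tyr204) and GAPDH. Ratios were converted to percent of DMSO control, with IC50 obtained by four-parameter regression.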
# KRas G12C, sequence (P01116 1-188 isoform P01116-2 G12C): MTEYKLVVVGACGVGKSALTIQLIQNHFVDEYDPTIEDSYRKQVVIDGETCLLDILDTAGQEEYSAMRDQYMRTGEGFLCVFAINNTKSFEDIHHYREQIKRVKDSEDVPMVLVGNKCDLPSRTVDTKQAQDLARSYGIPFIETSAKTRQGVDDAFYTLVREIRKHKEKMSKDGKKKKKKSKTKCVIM
row,Structure (SMILES),IC50
1,"C=CC(=O)N1CCN(c2nc(OC[C@H]3COCCN3C)nc3c2CCN(c2cccc4ccccc24)C3)CC1CC#N (stereo partly drawn) [Example 273, 2-(1-acryloyl-4-(2-(((R)-4-methylmorpholin-3-yl)methoxy)-7-(naphthalen-1-yl)-5,6,7,8-tetrahydropyrido[3,4-d]pyrimidin-4-yl)piperazin-2-yl)acetonitrile]",> 1000 nM
2,"C=CC(=O)N1CCN(c2nc(OC[C@@H]3COCCN3C)nc3c2CCN(c2cccc4ccccc24)C3)CC1CC#N (stereo partly drawn) [Example 272, 2-(1-acryloyl-4-(2-(((S)-4-methylmorpholin-3-yl)methoxy)-7-(naphthalen-1-yl)-5,6,7,8-tetrahydropyrido[3,4-d]pyrimidin-4-yl)piperazin-2-yl)acetonitrile]",0.1 to 1000 nM
3,"C=CC(=O)N1CCN(c2nc(OC[C@@H]3CCCN3CC)nc3c2CCN(c2cccc4ccccc24)C3)C[C@@H]1CC#N [Example 400, 2-((S)-1-acryloyl-4-(2-(((S)-1-ethylpyrrolidin-2-yl)methoxy)-7-(naphthalen-1-yl)-5,6,7,8-tetrahydropyrido[3,4-d]pyrimidin-4-yl)piperazin-2-yl)acetonitrile]",0.1 to 1000 nM
4,"C=CC(=O)N1CCN(c2nc(O[C@H](C)CN(C)C)nc3c2CCN(c2c(O)ccc(C)c2F)C3)CC1 [Example 84, (R)-1-(4-(2-((1-(dimethylamino)propan-2-yl)oxy)-7-(2-fluoro-6-hydroxy-3-methylphenyl)-5,6,7,8-tetrahydropyrido[3,4-d]pyrimidin-4-yl)piperazin-1-yl)prop-2-en-1-one]",> 1000 nM
5,"C=CC(=O)N1CCN(c2nc(OC[C@H]3CCCN3C)nc3c2CCN(c2ccc(F)c4ccccc24)C3)C[C@@H]1CC#N [Example 318, 2-[(2S)-4-[7-(4-fluoro-1-naphthyl)-2-[[(2R)-1-methylpyrrolidin-2-yl]methoxy]-6,8-dihydro-5H-pyrido[3,4-d]pyrimidin-4-yl]-1-prop-2-enoyl-piperazin-2-yl]acetonitrile]",0.1 to 1000 nM
6,"C=CC(=O)N1CCN(c2nc(OC[C@H]3CN(C)CCO3)nc3c2CCN(c2cccc4cccc(Cl)c24)C3)C[C@@H]1CC#N [Example 363, 2-[(2S)-4-[7-(8-chloro-1-naphthyl)-2-[[(2R)-4-methylmorpholin-2-yl]methoxy]-6,8-dihydro-5H-pyrido[3,4-d]pyrimidin-4-yl]-1-prop-2-enoyl-piperazin-2-yl]acetonitrile]",0.1 to 1000 nM
7,"C=CC(=O)N1CCN(c2nc(OC[C@@H]3CCCN3C)nc3c2CCN(c2cncc4ccccc24)C3)CC1CC#N (stereo partly drawn) [Example 291, 2-[4-[7-(4-isoquinolyl)-2-[[(2S)-1-methylpyrrolidin-2-yl]methoxy]-6,8-dihydro-5H-pyrido[3,4-d]pyrimidin-4-yl]-1-prop-2-enoyl-piperazin-2-yl]acetonitrile]",0.1 to 1000 nM
8,"C=C(F)C(=O)N1CCN(c2ncnc3c2CCN(c2cccc4ccccc24)C3)C[C@@H]1CC#N [Example 610, (S)-2-(1-(2-fluoroacryloyl)-4-(7-(naphthalen-1-yl)-5,6,7,8-tetrahydropyrido[3,4-d]pyrimidin-4-yl)piperazin-2-yl)acetonitrile]",> 1000 nM
9,"C=CC(=O)N1CCN(c2nc(OC[C@@H]3CCCN3C)nc3c2CCN(c2cccc(Cl)c2C(F)(F)F)C3)C[C@@H]1CC#N [Example 428, 2-((S)-1-acryloyl-4-(7-(3-chloro-2-(trifluoromethyl)phenyl)-2-(((S)-1-methylpyrrolidin-2-yl)methoxy)-5,6,7,8-tetrahydropyrido[3,4-d]pyrimidin-4-yl)piperazin-2-yl)acetonitrile]",0.1 to 1000 nM
10,"C=C(F)C(=O)N1CCN(c2nc(OC[C@@H]3CCCN3C)nc3c2CCN(c2cncc4ccc(C)cc24)C3)C[C@@H]1CC#N [Example 607, 2-((S)-1-(2-fluoroacryloyl)-4-(7-(6-methylisoquinolin-4-yl)-2-(((S)-1-methylpyrrolidin-2-yl)methoxy)-5,6,7,8-tetrahydropyrido[3,4-d]pyrimidin-4-yl)piperazin-2-yl)acetonitrile]",0.1 to 1000 nM
11,"C=CC(=O)N1C[C@H]2CC[C@@H](C1)N2c1nc(OC(C)CN(C)C)nc2c1CCN(c1cc(O)cc3ccccc13)C2 (stereo partly drawn) [Example 46, 1-((1R,5S)-8-(2-((1-(dimethylamino)propan-2-yl)oxy)-7-(3-hydroxynaphthalen-1-yl)-5,6,7,8-tetrahydropyrido[3,4-d]pyrimidin-4-yl)-3,8-diazabicyclo[3.2.1]octan-3-yl)prop-2-en-1-one]",> 1000 nM
12,"CC#CC(=O)N1CCN(c2nc(OC[C@@H]3CCCN3C)nc3c2CCN(c2cccc4ccccc24)C3)CC1CC#N (stereo partly drawn) [Example 376, 2-(1-(but-2-ynoyl)-4-(2-(((S)-1-methylpyrrolidin-2-yl)methoxy)-7-(naphthalen-1-yl)-5,6,7,8-tetrahydropyrido[3,4-d]pyrimidin-4-yl)piperazin-2-yl)acetonitrile 2,2,2-trifluoroacetate]",0.1 to 1000 nM
13,C=CC(=O)N1CCN(c2nc(OC[C@@H]3CCCN3C)nc3c2CCN(c2c(F)cccc2C(F)(F)F)C3)CC1CC#N (some centres unmarked) [Example 412],0.1 to 1000 nM
14,"C=CC(=O)N1CCN(c2nc(OC[C@@H]3C[C@@H](O)CN3C)nc3c2CCN(c2cccc4ccccc24)C3)C[C@@H]1CC#N [Example 315, 2-[(2S)-4-[2-[[(2S,4R)-4-hydroxy-1-methyl-pyrrolidin-2-yl]methoxy]-7-(1-naphthyl)-6,8-dihydro-5H-pyrido[3,4-d]pyrimidin-4-yl]-1-prop-2-enoyl-piperazin-2-yl]acetonitrile]",0.1 to 1000 nM
15,"C=CC(=O)N1CCN(c2nc(OC[C@H]3CCCCN3C)nc3c2CCN(c2cccc4ccccc24)C3)C[C@@H]1CC#N [Example 432, 2-((S)-1-acryloyl-4-(2-(((R)-1-methylpiperidin-2-yl)methoxy)-7-(naphthalen-1-yl)-5,6,7,8-tetrahydropyrido[3,4-d]pyrimidin-4-yl)piperazin-2-yl)acetonitrile]",0.1 to 1000 nM
16,"C=CC(=O)N1CCN(c2nc(OC[C@@H]3CCCN3C)nc3c2CCN(c2c(O)cccc2F)C3)[C@@H](C)C1 [Example 321, 1-[(3S)-4-[7-(2-fluoro-6-hydroxy-phenyl)-2-[[(2S)-1-methylpyrrolidin-2-yl]methoxy]-6,8-dihydro-5H-pyrido[3,4-d]pyrimidin-4-yl]-3-methyl-piperazin-1-yl]prop-2-en-1-one]",> 1000 nM
17,"C=CC(=O)N1CCN(c2nc(OC[C@H]3CCCN3C)nc3c2CCN(c2c(C(F)(F)F)ccc4[nH]ncc24)C3)CC1CC#N (stereo partly drawn) [Example 243, 2-[4-[2-[[(2R)-1-methylpyrrolidin-2-yl]methoxy]-7-[5-(trifluoromethyl)-1H-indazol-4-yl]-6,8-dihydro-5H-pyrido[3,4-d]pyrimidin-4-yl]-1-prop-2-enoyl-piperazin-2-yl]acetonitrile]",0.1 to 1000 nM

# More lines, now with the values ahead:
row,IC50,Structure (SMILES)
1,> 1000 nM,"C=CC(=O)N1CCN(c2nc(OC[C@H]3CCC(=O)N3)nc3c2CCN(c2cc(O)cc4ccccc24)C3)CC1 [Example 58, (R)-5-(((4-(4-acryloylpiperazin-1-yl)-7-(3-hydroxynaphthalen-1-yl)-5,6,7,8-tetrahydropyrido[3,4-d]pyrimidin-2-yl)oxy)methyl)pyrrolidin-2-one]"
2,> 1000 nM,"C=CC(=O)N1CCN(c2nc(OC3CCN(C)CC3)nc3c2CCN(c2cc(O)cc4ccccc24)C3)CC1 [Example 22, 1-(4-(7-(3-hydroxynaphthalen-1-yl)-2-((1-methylpiperidin-4-yl)oxy)-5,6,7,8-tetrahydropyrido[3,4-d]pyrimidin-4-yl)piperazin-1-yl)prop-2-en-1-one]"
3,0.1 to 1000 nM,"C=CC(=O)N1CCN(c2nc(OCCN(C)C)nc3c2CCN(c2cc(O)cc4ccccc24)C3)CC1CC#N (centres unmarked) [Example 170, 2-(1-acryloyl-4-(2-(2-(dimethylamino)ethoxy)-7-(3-hydroxynaphthalen-1-yl)-5,6,7,8-tetrahydropyrido[3,4-d]pyrimidin-4-yl)piperazin-2-yl)acetonitrile]"
4,0.1 to 1000 nM,"C=CC(=O)N1CCN(c2nc(OC[C@@H]3CCCN3C(C)C)nc3c2CCN(c2cc(O)cc4ccccc24)C3)CC1 [Example 145, 1-[4-[7-(3-hydroxy-1-naphthyl)-2-[[(2S)-1-isopropylpyrrolidin-2-yl]methoxy]-6,8-dihydro-5H-pyrido[3,4-d]pyrimidin-4-yl]piperazin-1-yl]prop-2-en-1-one]"
5,> 1000 nM,"C=CC(=O)N1CCN(c2nc(OCCN(C)C)nc3c2CCN(c2cc(O)cc4ccccc24)C3)CC1 [Example 9, 1-(4-(2-(2-(dimethylamino)ethoxy)-7-(3-hydroxynaphthalen-1-yl)-5,6,7,8-tetrahydropyrido[3,4-d]pyrimidin-4-yl)piperazin-1-yl)prop-2-en-1-one]"
6,> 1000 nM,"C=CC(=O)N1CCN(c2nc(OC[C@@H]3CCCN3C)nc3c2CCN(c2cccc4ccccc24)C3)CC1COC (stereo partly drawn) [Example 256, 1-(2-(methoxymethyl)-4-(2-(((S)-1-methylpyrrolidin-2-yl)methoxy)-7-(naphthalen-1-yl)-5,6,7,8-tetrahydropyrido[3,4-d]pyrimidin-4-yl)piperazin-1-yl)prop-2-en-1-one]"
7,> 1000 nM,"C=CC(=O)N1CCN(c2nc(OC[C@H]3CCC(C)(C)N3)nc3c2CCN(c2cc(O)cc4ccccc24)C3)CC1 [Example 174, (R)-1-(4-(2-((5,5-dimethylpyrrolidin-2-yl)methoxy)-7-(3-hydroxynaphthalen-1-yl)-5,6,7,8-tetrahydropyrido[3,4-d]pyrimidin-4-yl)piperazin-1-yl)prop-2-en-1-one]"
8,> 1000 nM,"C=CC(=O)N1CCN(c2nc(OCCN3CCC(F)C3)nc3c2CCN(c2cc(O)cc4ccccc24)C3)CC1 (centres unmarked) [Example 49, 1-(4-(2-(2-(3-fluoropyrrolidin-1-yl)ethoxy)-7-(3-hydroxynaphthalen-1-yl)-5,6,7,8-tetrahydropyrido[3,4-d]pyrimidin-4-yl)piperazin-1-yl)prop-2-en-1-one]"
9,> 1000 nM,"C=CC(=O)N1CCN(c2nc(OCCNC(C)=O)nc3c2CCN(c2cc(O)cc4ccccc24)C3)CC1 [Example 59, N-(2-((4-(4-acryloylpiperazin-1-yl)-7-(3-hydroxynaphthalen-1-yl)-5,6,7,8-tetrahydropyrido[3,4-d]pyrimidin-2-yl)oxy)ethyl)acetamide]"
